From PMC7216583 (Parasites & Vectors, 2020)
Counter-ions that a name gives are not always drawn. Like-named read-outs stand apart in the source and are kept apart here.

Assays:
JAK2 = tested on: JAK2; design: method as in S-inhibitor catalog; settings: vendor brief description; ref S-inhibitor catalog; cited from earlier work
[1] = tested on: Toxoplasma gondii RH-2F tachyzoites; test: microbe, parasite or virus in culture; settings: 72 h; for inhibition at 5 µM: read-out: Parasite inhibition (%) Mean ± SD
[2] = tested on: Toxoplasma gondii RH-2F tachyzoites; settings: for effect on T. gondii growth in the screen: 5 μM, 72 h
in vitro = settings: human
mTOR [3] = tested on: mTOR; design: method as in S-inhibitor catalog; settings: vendor brief description; ref S-inhibitor catalog; cited from earlier work
mTOR [4] = tested on: mTOR; design: method as in library vendor description; settings: ref library vendor description; cited from earlier work
VEGFR-2 = tested on: VEGFR-2; design: method as in vendor brief description; settings: ref vendor brief description; cited from earlier work
[5] = tested on: chymotrypsin-like proteolytic (β5) site of the 20S proteasome; design: method as in S-inhibitor; settings: ref S-inhibitor; cited from earlier work
Aurora B = tested on: Aurora B; design: method as in S-inhibitor catalog; settings: vendor brief description; ref S-inhibitor catalog; cited from earlier work
[6] = tested on: human foreskin fibroblasts (HFFs); settings: preliminary screen of compound library; mean
[7] = read-out: Parasite inhibition (%) mean, preliminary screen, mean
[8] = read-out: Parasite inhibition (%) mean, preliminary screen of compound library, mean
[9] = preliminary screen of compound library, mean

## Cc1cc(Nc2nc(N[C@@H](C)c3ccc(F)cc3)c(C#N)cc2F)[nH]n1 [AZ 960]
JAK2
  IC50: < 3 nM
  Ki: 0.45 nM
[1]; [7]
  inhibition of growth at 5 µM: -2.1%

## COC(=O)N[C@H](C(=O)N[C@@H](Cc1ccccc1)[C@@H](O)CN(Cc1ccc(-c2ccccn2)cc1)NC(=O)[C@@H](NC(=O)OC)C(C)(C)C)C(C)(C)C [Atazanavir, reference compound]
[1]
  inhibition at 5 µM: 93.6 ± 2.1%
[2]
  effect on T. gondii growth in the screen: significantly inhibited T. gondii growth
In vitro; Host viability (%) Mean ± SD
  viability at 72 h, 5 µM: 90.7 ± 2.8%

## CN1CCN(c2cccc(Nc3nc4c(-c5ccc(S(C)(=O)=O)cc5)cccn4n3)c2)CC1 [CEP33779]
JAK2
  IC50: 1.8 nM
[1]; [8]
  inhibition of growth at 5 µM: 7.8%

## CS(=O)(=O)N1CCc2c(-c3cnc(N)nc3)nc(N3CCOCC3)nc21 [CH5132799]
[1]; [8]
  inhibition of growth at 5 µM: 48.9%
mTOR [3]
  IC50: 1600 nM

## CO[C@H]1C[C@H]2CC[C@@H](C)[C@@](O)(O2)C(=O)C(=O)N2CCCC[C@H]2C(=O)O[C@H]([C@H](C)C[C@@H]2CC[C@H](OP(C)(C)=O)[C@H](OC)C2)CC(=O)[C@H](C)/C=C(\C)[C@@H](O)[C@@H](OC)C(=O)[C@H](C)C[C@H](C)/C=C/C=C/C=C/1C [Deforolimus (Ridaforolimus)]
[1]; [7]
  inhibition of growth at 5 µM: 36.8%
mTOR [4]
  IC50: 0.2 nM

## CC(O)C(=O)O.CC(O)C(=O)O.CN1CCN(c2ccc3nc(-c4c(N)c5c(F)cccc5[nH]c4=O)[nH]c3c2)CC1 [Dovitinib Dilactic acid]
[2]; [9]
  Parasite inhibition (%) mean: 18.2%

## Nc1ccccc1NC(=O)c1ccc(CNC(=O)OCc2cccnc2)cc1 [Entinostat, reference compound]
[1]
  inhibition at 5 µM: 75.7 ± 2.2%
In vitro; Host viability (%) Mean ± SD
  viability at 72 h, 5 µM: 81.6 ± 1.5%

## Cc1c(CN2CCN(C(=O)[C@H](C)O)CC2)sc2c(N3CCOCC3)nc(-c3cnc(N)nc3)nc12 [GDC-0980 (RG7422)]
[1]; [8]
  inhibition of growth at 5 µM: 33.7%
mTOR [3]
  Ki: 17 nM

## CNC(=O)CN(CCN(CCN(CC(=O)[O-])CC(=O)NC)CC(=O)[O-])CC(=O)[O-].O.[Gd+3] [Gadodiamide (Omniscan)]
[2]; [9]
  Parasite inhibition (%) mean: -0.2%

## Oc1cc(O)c(Cl)cn1 [Gimeracil]
[1]; [7]
  inhibition of growth at 5 µM: 70.8%
In vitro; Host viability (%) mean
  viability at 72 h: 75.6%

## CN1CCN(C2CCN(C(=O)Nc3cc(Oc4ccc(NC(=O)C5(C(=O)Nc6ccc(F)cc6)CC5)c(F)c4)ccn3)CC2)CC1 [Golvatinib (E7050)]
[1]; [8]
  inhibition of growth at 5 µM: 76.8%
In vitro; Host viability (%) mean
  viability at 72 h: 78.3%
VEGFR-2
  IC50: 16 nM

## Cl.N=C(N)N [Guanidine HCl]
[2]; [9]
  Parasite inhibition (%) mean: -3.4%

## CNC(=O)c1ccc(-c2cnc3ncc(Cc4ccc5ncccc5c4)n3n2)cc1F [INCB28060]
[1]; [8]
  inhibition of growth at 5 µM: 89.8%
In vitro
  viability: 46.3%

## CC(C)Cc1ccc(C(C)C(=O)O)cc1.NCCCC[C@H](N)C(=O)O (centres unmarked) [Ibuprofen Lysine (NeoProfen)]
[2]; preliminary screen, mean
  Parasite inhibition (%) mean: -1.6%

## O=C(C[S+]([O-])Cc1ccco1)NC/C=C\COc1cc(CN2CCCCC2)ccn1 (centres unmarked) [Lafutidine, reference compound]
[1]
  inhibition at 5 µM: 70.6 ± 2.5%
In vitro; Host viability (%) Mean ± SD
  viability at 72 h, 5 µM: 92.7 ± 5.6%
In vitro; Host viability (%) mean
  viability at 72 h: 92.7%

## C[C@]1(O)C[C@@H](c2nc(-c3ccc4ccc(-c5ccccc5)nc4c3)c3c(N)nccn32)C1 [Linsitinib (OSI-906)]
[1]; [7]
  inhibition of growth at 5 µM: 78.8%
In vitro; Host viability (%) mean
  viability at 72 h: 72.2%

## CC(C)C[C@H](NC(=O)CNC(=O)c1cc(Cl)ccc1Cl)B(O)O [MLN2238]
[1]; [7]
  inhibition of growth at 5 µM: 13.3%
[5]
  IC50: 3.4 nM
  Ki: 0.93 nM

## O=C1CCC[C@@H]2[C@@H]3CCCN4CCC[C@H](CN12)[C@@H]34 [Matrine ((+)-Matrine)]
[1]; [8]
  inhibition of growth at 5 µM: 78.7%
In vitro; uninfected human foreskin fibroblasts (HFFs)
  viability at 72 h: 19.6%

## Cc1cccc(C(C)c2cnc[nH]2)c1C (centres unmarked) [Medetomidine HCl, reference compound]
[1]
  inhibition at 5 µM: 70.8 ± 1.5%
In vitro
  viability: 90.5%
  viability at 5 µM: 90.5 ± 4.4%

## Nc1ccccc1NC(=O)c1ccc(CNc2nccc(-c3cccnc3)n2)cc1 [Mocetinostat (MGCD0103)]
[1]; [7]
  inhibition of growth at 5 µM: 86.5%
In vitro; Host viability (%) mean
  viability at 72 h: 80.2%

## Nc1ccccc1NC(=O)c1ccc(CNc2nccc(-c3cccnc3)n2)cc1 [Mocetinostat, reference compound]
[1]
  inhibition at 5 µM: 86.5 ± 3.1%
In vitro; Host viability (%) Mean ± SD
  viability at 72 h, 5 µM: 80.2 ± 3.8%

## CN(C)Cc1c(C(=O)NCCOc2ccc(C(=O)NO)cc2)oc2ccccc12 [PCI-24781]
[1]; [7]
  inhibition of growth at 5 µM: 82.7%
In vitro; Host viability (%) mean
  viability at 72 h: 33.8%

## OCCn1cc(-c2cnc3nnn(Cc4ccc5ncccc5c4)c3n2)cn1 [PF-04217903]
[1]; read-out: Parasite inhibition (%) mean
  inhibition of growth at 5 µM: 88.6%
In vitro
  viability at 72 h: 65%

## Cc1[nH]c(/C=C2\C(=O)Nc3ccc(S(=O)(=O)Cc4c(Cl)cccc4Cl)cc32)c(C)c1C(=O)N1CCC[C@@H]1CN1CCCC1 [PHA-665752, reference compound]
[1]
  inhibition at 5 µM: 92.3 ± 3.1%
[2]
  effect on T. gondii growth in the screen: significantly inhibited T. gondii growth
In vitro; Host viability (%) Mean ± SD
  viability at 72 h, 5 µM: 80.5 ± 1.3%
In vitro; Host viability (%) mean
  viability at 72 h: 80.5%

## O=S(=O)(F)Cc1ccccc1 [PMSF (Phenylmethylsulfonyl Fluoride)]
[2]; [9]
  Parasite inhibition (%) mean: 0.8%

## Cl.NC(=O)c1cnc(N[C@@H]2CCCC[C@@H]2N)nc1Nc1cccc(-n2nccn2)c1 [PRT062607 HCl]
[2]; [9]
  Parasite inhibition (%) mean: 17.8%

## NCCC(O)(P(=O)(O)O)P(=O)(O)O [Pamidronate disodium, reference compound]
[1]
  inhibition at 5 µM: 79.6 ± 1.5%
In vitro
  viability at 72 h: 80.8%
  viability at 72 h, 5 µM: 80.8 ± 1.4%

## [I-].[K+] [Potassium iodide]
[2]; [9]
  Parasite inhibition (%) mean: 10.2%

## C=C[C@H]1C[N@@]2CC[C@H]1C[C@H]2[C@H](O)c1ccnc2ccc(OC)cc12 [Quinine hydrochloride dihydrate]
[1]; [8]
  inhibition of growth at 5 µM: 78.9%
In vitro
  viability: 79.4%

## COc1cc(Nc2ncc(F)c(Nc3ccc4c(n3)N(COP(=O)(O)O)C(=O)C(C)(C)O4)n2)cc(OC)c1OC [R935788]
[2]; preliminary screen, mean
  Parasite inhibition (%) mean: 28.5%

## N[C@@H]1CN(c2c(F)cc3c(=O)c(C(=O)O)cn([C@@H]4C[C@@H]4F)c3c2Cl)CC12CC2.O [Sitafloxacin hydrate]
[2]; [9]
  Parasite inhibition (%) mean: 53.1%

## CCS(=O)(=O)c1cccc(-c2cc(C(=O)NC3CCN(C)CC3)c(C)c3[nH]c4ncc(C)cc4c23)c1 [TAK-901]
[1]; [8]
  inhibition of growth at 5 µM: 77.8%
Aurora B
  IC50: 15 nM
In vitro; Host viability (%) mean
  viability at 72 h: 52.7%

## CO[C@H]1C[C@H]2CC[C@@H](C)[C@@](O)(O2)C(=O)C(=O)N2CCCC[C@H]2C(=O)O[C@H]([C@H](C)C[C@@H]2CC[C@H](OC(=O)C(C)(CO)CO)[C@H](OC)C2)CC(=O)[C@H](C)/C=C(\C)[C@@H](O)[C@@H](OC)C(=O)[C@H](C)C[C@H](C)/C=C/C=C/C=C/1C [Temsirolimus (Torisel)]
[1]; [7]
  inhibition of growth at 5 µM: 22.4%
mTOR [4]
  IC50: 1760 nM

## N#CC(=C(/N)Sc1ccccc1N)/C(C#N)=C(/N)Sc1ccccc1N [U0126, reference compound]
[2]
  effect on T. gondii growth in the screen: no effect on T. gondii growth

## Cc1cc(Nc2cc(N3CCN(C)CC3)nc(Sc3ccc(NC(=O)C4CC4)cc3)n2)n[nH]1 [VX-680 (MK-0457, Tozasertib)]
[1]; [7]
  inhibition of growth at 5 µM: 70.7%
In vitro; Host viability (%) mean
  viability at 72 h: 34.7%

## CN[C@H](CC(C)C)C(=O)N[C@H]1C(=O)N[C@@H](CC(N)=O)C(=O)N[C@H]2C(=O)N[C@H]3C(=O)N[C@@H](C(=O)N[C@H](C(=O)O)c4cc(O)cc(O)c4-c4cc3ccc4O)[C@H](O)c3ccc(c(Cl)c3)Oc3cc2cc(c3O[C@H]2O[C@H](CO)[C@@H](O)[C@H](O)[C@H]2O[C@H]2C[C@@](C)(N)[C@H](O)[C@H](C)O2)Oc2ccc(cc2Cl)[C@H]1O.Cl [Vancomycin HCl (Vancocin)]
[2]
  Parasite inhibition (%) mean: 0.8%

## COc1cc2c(Nc3ccc(Br)cc3F)ncnc2cc1OCC1CCN(C)CC1 [Vandetanib (Zactima)]
[1]; [7]
  inhibition of growth at 5 µM: 80.2%
In vitro
  viability at 72 h: 79.5%

## c1cncc(CN2CCC(n3ncc4c(N5CCOCC5)nc(-c5ccc6[nH]ccc6c5)nc43)CC2)c1 [WAY-600]
[1]; [8]
  inhibition of growth at 5 µM: 35.5%
mTOR [3]
  IC50: 9 nM

## COC(=O)Nc1ccc(-c2nc(N3CCOCC3)c3cnn(C4CCN(C(=O)OC)CC4)c3n2)cc1 [WYE-354]
[1]; [7]
  inhibition of growth at 5 µM: 43.5%
mTOR [4]
  IC50: 5 nM

## COC(=O)Nc1ccc(-c2nc(N3CCOCC3)c3cnn(C4CCN(Cc5cccnc5)CC4)c3n2)cc1 [WYE-687]
[1]; [8]
  inhibition of growth at 5 µM: 28.7%
mTOR [3]
  IC50: 7 nM

## CNC(=O)Nc1ccc(-c2nc(N3CC4CCC(C3)O4)c3cnn(C4CCC5(CC4)OCCO5)c3n2)cc1 [WYE-125132]
[1]; [8]
  inhibition of growth at 5 µM: 44.4%
mTOR [3]
  IC50: 0.19 nM

## Cc1cc(F)c(Nc2ncnc3cc(OCc4ccccc4)ccc23)cc1O [ZM 323881 HCl, reference compound]
[1]
  inhibition at 5 µM: 79.9 ± 1.4%
In vitro; Host viability (%) Mean ± SD
  viability at 72 h, 5 µM: 85.5 ± 5.4%
In vitro; Host viability (%) mean
  viability at 72 h: 85.5%
VEGFR-2
  IC50: < 2 nM

## COc1cc2c(Nc3ccc(NC(=O)c4ccccc4)cc3)ncnc2cc1OCCCN1CCOCC1 [ZM-447439]
[1]; [7]
  inhibition of growth at 5 µM: 70.2%
In vitro; Host viability (%) mean
  viability at 72 h: 31.2%

## Cc1cc(C)c(/C=C2\C(=O)Nc3ccccc32)[nH]1 [semaxanib, reference compound]
[2]
  effect on T. gondii growth in the screen: no effect on T. gondii growth

## AT101
[2]
  Parasite inhibition (%) mean: 70.4%
[6]
  Host viability (%) mean: 68.8%

## Biapenem
[2]; [9]
  Parasite inhibition (%) mean: 5.8%

## MLN9708
[2]; preliminary screen, mean
  Parasite inhibition (%) mean: 17.5%
[5]
  IC50: 3.4 nM
  Ki: 0.93 nM

## Ulipristal
[2]; [9]
  Parasite inhibition (%) mean: -0.7%
